The text below walks through data of patent US10744135B2, “Use of an active substance in the treatment of melasma” (priority 2016, dated 2020).

For the experiment, the system named is lesions of telangiectatic melasma. The text has this: As is known, the increase in pigmentation occurs to a greater extent during the day, wherein the action of the light is an important causal factor.

Take `Brc1c(NC2=NCCN2)ccc2nccnc12` [brimonidine]: the “duration of effects in minimising the deterioration brought about by sunlight” value (applied in the morning) is recorded as “up to 9 hours”. Further, where the note is “topical, following a period of 30 to 60 minutes from application”, the “improvement of the lesions of telangiectatic melasma” value is “immediate and obvious improvement”. Also, the “improvement in the hyperpigmentation of the skin of the melasma lesions” value (topical, minutes following application, patient (FIGS. 1-4)) is given as “effective improvement in the hyperpigmentation”.
